Experimental data as given in patent publication US8962624B2, “Morpholines as selective inhibitors of cytochrome P450 2A13” (University of Kansas, priority 2007, dated 2015).
Values joined by “and” are separate entries in the source; they are usually repeats but may differ in a detail not shown here. Equal values may be shown once. Where a name gives a salt, the structure may show the parent alone. Read-outs that look alike come from different tables or passages of the source.

Assays:
CYP2A6 = molecular target: T1, CYP2A6 (Homo sapiens, UniProt P11509); test: Spectral shift ligand binding titration with purified CYP2A6dH; details: for Kd / 2A6 Av. Kd: Table 1, average Kd; for Kd: read-out: 2A6 Av. Kd; for binding to CYP2A6 in titration / spectral shift with CYP2A6: result in words
T1 construct: truncation of the non-catalytic N-terminal transmembrane helix and addition of a C-terminal 4× histidine tag; 4xHis (C); made in house; host or cells: E. coli
T1 sequence (P11509 with tags, fused parts or gaps limits assumed): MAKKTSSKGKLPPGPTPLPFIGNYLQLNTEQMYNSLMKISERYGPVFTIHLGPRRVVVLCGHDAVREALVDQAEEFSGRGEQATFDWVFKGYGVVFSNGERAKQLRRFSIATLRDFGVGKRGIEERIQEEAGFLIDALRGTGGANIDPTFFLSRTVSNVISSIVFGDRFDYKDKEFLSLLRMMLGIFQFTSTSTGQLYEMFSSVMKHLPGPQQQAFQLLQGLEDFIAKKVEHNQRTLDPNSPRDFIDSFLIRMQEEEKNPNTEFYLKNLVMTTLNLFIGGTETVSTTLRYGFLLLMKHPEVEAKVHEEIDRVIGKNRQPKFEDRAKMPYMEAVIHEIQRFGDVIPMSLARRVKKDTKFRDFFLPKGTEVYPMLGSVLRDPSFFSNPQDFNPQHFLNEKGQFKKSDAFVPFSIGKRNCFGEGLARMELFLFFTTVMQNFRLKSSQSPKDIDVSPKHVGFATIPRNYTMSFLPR
Description: (§1) To date, virtually all attempts to characterize full-length mammalian cytochromes P450 have been restricted by the production of only small (nanomolar) amounts of protein. However, truncation of the non-catalytic N-terminal transmembrane helix and addition of a C-terminal 4× histidine tag allow us to recombinantly produce tens of milligrams of highly purified modified CYP2A13 and CYP2A6 proteins per liter of E. coli culture. These engineered versions of the proteins (CYP2A13dH and CYP2A6dH are not shown) are fully functional in both binding ligands and metabolism of substrates. Protein expression in E. coli is initiated with the addition of IPTG to media supplemented with the heme precursor aminolevulinic acid. After 48-72 hours this expression system yields approximately 500-1300 nmol (27-71 mg) of CYP2A13dH or CYP2A6dH per liter of bacterial culture. Briefly, P450 proteins are liberated from E, coli membranes using a specialized detergent and high salt conditions and subsequently purified using metal-affinity and carboxymethyl-sepharose (CM-sepharose) affinity chromatography. Overall purification yield is up to 14 mg of highly purified protein per liter of E. coli culture.
(§2) Cytochrome P4502A13dH was expressed and purified as previously described (J. Biol. Chem. (2007), 282(23)17306-17313). Briefly, CYP2A13 was solubilized from the membrane using 4.8 mM Cymal-5 detergent (Anatrace, Maumee, Ohio) and 0.3M NaCl followed by ultracentrifugation at 30,000 rpm for 60 minutes. The solubilized protein was applied to Ni^2+-agarose resin (Qiagen, Valencia, Calif.) and after extensive washing with Buffer A (0.1M potassium phosphate, pH 7.4, 20% glycerol, 0.2M sodium chloride, 4.8 mM cymal, 8 mM histidine), the protein was eluted using Buffer B (Buffer A containing 2 mM EDTA and 80 mM histidine). The fractions containing protein with absorbance at 415 nm were pooled, diluted 5-fold with Buffer C (5 mM potassium phosphate, pH 7.4, 20% glycerol, 4.8 mM Cymal-5), and loaded onto HiTrap CM-FF column. The column was washed extensively with Buffer C without the detergent. Purified CYP2A13 was eluted using Buffer C with 50 mM potassium phosphate and 500 mM NaCl. An average yield of 14 mgs of CYP2A13 was obtained per liter of E. coli culture, Cytochrome P4502A6dH was similarly prepared.
(§3) The UV/visible spectra of purified CYP2A13dH and CYP2A6dH have a Soret peak at 418 nm, indicative of a low-spin, six-coordinate configuration of the heme iron bound to an active site water molecule (FIG. 1A). When ligands bind in the active site they frequently displace the water from the iron, resulting in a shift to five-coordinate, high spin iron with a maximal absorbance 395 nm. For cytochrome P450 enzymes, one often records the spectrum shift that occurs as protein is titrated with ligand to determine ligand affinity (kd values) (FIG. 1B).
(§4) The compounds that induced spectral shifts close to that of the positive control (PEITC) were validated in the spectral shift assay using the low throughput cuvette method. CYP2A13 protein samples were diluted to a concentration of 1 μM in 100 mM potassium phosphate buffer (pH 7.4) and were divided equally between reference and sample 1 mL quartz cuvettes. Concentrated compound stocks were prepared in 100% DMSO and the sample baseline was taken from 300-500 nm before beginning the titration. Substrate was added to the sample cuvette, mixed, and allowed to equilibrate for 2 minutes. An equal amount of ethanol was added to the reference cuvette for every addition of compound stock to the sample. The total amount of ethanol was kept less than 2% for each titration. After each coumarin addition, difference spectra were recorded from 300-500 nm and the change maximum (˜420 nm) to the minimum (˜385 nm) was determined. Graphpad Prism 4 (Graphpad Software, San Diego, Calif.) was used to determine the Ks and ΔAmax with nonlinear least-squares regression fitting to the equation: […]

CYP2A13 = molecular target: T2, CYP2A13 (Homo sapiens, UniProt Q16696); test: Spectral shift ligand binding titration (cuvette method) with purified CYP2A13dH; details: for Selectivity 2A6 Kd/2A13 Kd: (CYP2A6 Kd)/(CYP2A13 Kd), higher numbers are more selective
T2 construct: truncation of the non-catalytic N-terminal transmembrane helix and addition of a C-terminal 4× histidine tag; 4xHis (C); made in house; host or cells: E. coli
T2 sequence (Q16696 with tags, fused parts or gaps limits assumed): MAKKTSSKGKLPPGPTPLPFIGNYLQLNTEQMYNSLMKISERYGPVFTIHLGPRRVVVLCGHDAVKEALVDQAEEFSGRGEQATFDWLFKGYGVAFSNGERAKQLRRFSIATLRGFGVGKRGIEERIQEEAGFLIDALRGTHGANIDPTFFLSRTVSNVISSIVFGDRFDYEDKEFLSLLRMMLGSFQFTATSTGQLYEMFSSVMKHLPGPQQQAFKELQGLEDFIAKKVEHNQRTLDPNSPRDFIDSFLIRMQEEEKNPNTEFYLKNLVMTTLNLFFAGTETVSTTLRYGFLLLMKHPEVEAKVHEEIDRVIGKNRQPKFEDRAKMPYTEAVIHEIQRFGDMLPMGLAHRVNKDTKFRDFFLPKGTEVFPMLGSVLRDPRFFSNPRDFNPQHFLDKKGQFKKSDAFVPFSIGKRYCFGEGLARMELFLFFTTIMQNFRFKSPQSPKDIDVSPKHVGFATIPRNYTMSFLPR
Description: as §1, §2, §3, §4

[1] = Table 1, average Kd, read-out: 2A13 Av. Kd
[2] = initial characterisation of the hits, read-out: initial Kd values, CYP2A13
[3] = multiple titrations, read-out: average Kd for CYP2A13

Molecule	Kd (CYP2A6)	Selectivity 2A6 Kd/2A13 Kd (CYP2A13)	Kd (CYP2A13; [1])	2A6 Av. Kd (CYP2A6)	binding to CYP2A6 in titration (CYP2A6)	spectral shift with CYP2A6 (CYP2A6)	Kd (CYP2A13; [2])	Kd (CYP2A13; [3])	Kd (CYP2A13; Table 2, unit inferred, read-out: 2A13 Kd)	Kd (CYP2A13; text b152, unit inferred, multiple titrations, read-out: average Kd)
Clc1ccccc1CN1CCSCC1 [Compound 6, 4-(2-chlorobenzyl)thiomorpholine]	155 µM	15.5	10 µM	–	–	–	–	–	–	–
Clc1ccccc1CN1CCOCC1 [Compound 1, 4-(2-chlorobenzyl)morpholine]	–	high	–	No binding	no substantially binding	no spectral shift	1.8 µM	7.3 µM	–	–
Clc1cccc(CN2CCOCC2)c1Cl [Compound 7, 4-(2,3-dichlorobenzyl)morpholine]	788 µM	27	28.5 µM	–	–	–	–	–	–	–
C1CN(C2C3CC4CC(C3)CC2C4)CCO1 (centres unmarked) [Compound 31, 4-(2-adamantyl)morpholine hydrochloride]	–	–	–	–	–	–	–	–	28.8 µM	–
Clc1ccc(CN2CCOCC2)c(Cl)c1 [Compound 9, 4-(2,4-dichlorobenzyl)morpholine]	198 µM	5.66	35 µM	–	–	–	–	–	–	–
Clc1cccc(Cl)c1CN1CCOCC1 [Compound 8, 4-(2,6-dichlorobenzyl)morpholine]	553 µM	291	1.9 µM	–	–	–	–	–	–	–
Brc1ccccc1CN1CCOCC1 [Compound 4, 4-(2-bromobenzyl)morpholine]	–	high	7 µM	No binding	–	–	–	–	–	–
Fc1ccccc1CN1CCOCC1 [Compound 5, 4-(2-fluorobenzyl)morpholine]	–	high	72.5 µM	No binding	–	–	–	–	–	–
4-(2,3-dichlorobenzyl)-1,6-dimethylmorpholine [Compound 10]	> 486 µM	12.9	37.7 µM	–	–	–	–	–	–	–
Cc1ccccc1CN1CCOCC1 [Compound 3, 4-(2-methylbenzyl)morpholine]	–	high	19.3 µM	No binding	no substantially binding	no spectral shift	4 µM	19.3 µM	–	19.3 µM
Fc1cccc(Cl)c1CN1CCOCC1 [Compound 2, 4-(2-chloro-6-fluorobenzyl)morpholine]	–	high	–	No binding	no binding	absolutely no spectral shift	–	~5.8 µM and 5.8 µM	–	–
